Data: EP2934524B1, “PENETHAMATE VETERINARY INJECTABLE FORMULATIONS” (Alleva Animal Health Limited, priority 2012, dated 2014)

Experiments:
[1] = Estimated solubility and discolouration of penethamate in organic solvents; format: physicochemical; conditions: Solketal, propylene glycol, glycerol formal and DGMEE
Source text: Solubility of penethamate was estimated at the concentrations of 0.2% w/w and 1.0% w/w, in the following solvents: glycerine, Solketal, polyethylene glycol 200 (PEG 200), diethylene glycol butyl ether (DGBE), propylene glycol (PG), glycofural, diethylene glycol monomethyl ether (DGME), diethylene glycol methyl ethyl ether (DGMEE), dimethyl isosorbide (DMI), 2-pyrrolidone (2-pyrol), N-methyl-2-pyrrolidone (NMP), dimethyl acetamide (DMA), glycerol formal (GF), benzyl alcohol (BA), ethyl lactate and dimethyl sulfoxide (DMSO).

[2] = following injection, equivalent dose; cited from earlier work

In the case of `CCN(CC)CCOC(=O)[C@@H]1N2C(=O)[C@@H](NC(=O)Cc3ccccc3)[C@H]2SC1(C)C` [penethamate hydriodide, 2-(diethylamino)ethyl (2S,5R,6R)-3,3-dimethyl-7-oxo-6-[(2-phenylacetyl)amino]-4-thia-1-azabicyclo[3.2.0] heptane-2-carboxylate], the “discolouration in organic solvent” value ([1]; 0.2% w/w and 1.0% w/w in glycerine) is listed as “no discolouration”, the “solubility in organic solvent” value ([1]; estimated at 0.2% w/w and 1.0% w/w in glycerine) is listed as “minimal solubility” and the “levels of penicillin in the milk relative to other benzyl-penicillin preparations” value [2] is listed as “about 10 times higher”.
